Consider nine compounds from ChEMBL document CHEMBL5579830, “Design and synthesis of 6-C-alkyl-DMDP type nanomolar inhibitors of β-galactosidase and β-glucosidase based on broussonetine S and related derivatives” (Eur J Med Chem, 2024).

pIC50: −log10 of the molar value.

Sequence of Alpha-galactosidase (Coffea arabica) (Q42656 16-378 limits assumed): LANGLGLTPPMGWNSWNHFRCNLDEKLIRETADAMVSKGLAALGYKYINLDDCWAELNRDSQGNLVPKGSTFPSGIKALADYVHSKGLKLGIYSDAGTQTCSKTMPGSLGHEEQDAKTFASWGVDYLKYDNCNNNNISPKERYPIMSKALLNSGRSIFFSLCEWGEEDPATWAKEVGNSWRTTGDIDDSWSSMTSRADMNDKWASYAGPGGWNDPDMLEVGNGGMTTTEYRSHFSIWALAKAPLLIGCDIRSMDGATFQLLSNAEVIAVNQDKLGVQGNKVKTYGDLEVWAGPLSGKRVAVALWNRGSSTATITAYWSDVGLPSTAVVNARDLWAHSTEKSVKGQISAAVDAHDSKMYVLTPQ

Biological target in the first experiment: not listed separately
In words: Inhibition of bovine liver beta-galactosidase using p-nitrophenyl glycoside as substrate assessed as release of p-nitrophenol by spectrometric analysis. The arrangement: species or system Bos taurus.
As to `CCCCCC[C@@H](O)[C@H]1N[C@H](CO)[C@@H](O)[C@@H]1O`, the pIC50 – broadly, the IC50 on a negative log10 scale, so that one unit is a factor of ten – was 7.30.

Regarding `OCCC[C@H](O)CCCCCCCC[C@@H](O)[C@@H]1N[C@@H](CO)[C@H](O)[C@H]1O`, the pIC50 is 5.41.

Consider `OCCC[C@@H](O)CCCCCCCCC[C@H]1N[C@H](CO)[C@@H](O)[C@@H]1O`, for which the pIC50 is 5.64.

With `CCCCCC[C@H](O)[C@H]1N[C@H](CO)[C@@H](O)[C@@H]1O`, the pIC50 was 6.44.

For `OCCC[C@@H](O)CCCCCCCC[C@H](O)C1N[C@H](CO)[C@@H](O)[C@@H]1O` (single isomer, unassigned), the pIC50 was 7.34.

For `Cl.OCCC[C@@H](O)CCCCCCCC[C@@H](O)[C@@H]1N[C@@H](CO)[C@H](O)[C@H]1O`, the pIC50 is 5.64.

With `CCCCCCC[C@@H](O)[C@@H]1N[C@@H](CO)[C@H](O)[C@H]1O`, the pIC50 is 4.54.

For the compound `OCCC[C@H](O)CCCCCCCC[C@H](O)[C@@H]1N[C@@H](CO)[C@H](O)[C@H]1O`, the pIC50 was 5.29.

As for `CCCCCCC[C@@H](O)[C@H]1N[C@H](CO)[C@@H](O)[C@@H]1O`, the pIC50 is 7.82.

Another experiment addresses T1, Lysosomal acid glucosylceramidase (Homo sapiens, UniProt P04062).
T1 sequence (P04062 whole entry): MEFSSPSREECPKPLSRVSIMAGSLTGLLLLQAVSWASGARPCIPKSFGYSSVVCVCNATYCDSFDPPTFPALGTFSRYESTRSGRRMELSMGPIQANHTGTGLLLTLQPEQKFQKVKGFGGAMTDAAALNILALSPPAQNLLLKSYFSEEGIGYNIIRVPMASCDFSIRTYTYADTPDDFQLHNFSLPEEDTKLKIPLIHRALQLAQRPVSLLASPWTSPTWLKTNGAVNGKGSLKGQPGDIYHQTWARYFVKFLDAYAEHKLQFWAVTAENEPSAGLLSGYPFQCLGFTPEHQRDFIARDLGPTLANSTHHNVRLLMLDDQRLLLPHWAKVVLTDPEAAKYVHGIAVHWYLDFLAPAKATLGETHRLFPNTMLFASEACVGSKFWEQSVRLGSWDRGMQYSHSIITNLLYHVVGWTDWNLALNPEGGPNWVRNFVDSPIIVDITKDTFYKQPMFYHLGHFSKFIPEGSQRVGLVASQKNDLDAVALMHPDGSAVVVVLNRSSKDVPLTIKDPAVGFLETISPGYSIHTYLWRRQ
In words: Inhibition of human lysosome beta-glucosidase using p-nitrophenyl glycoside as substrate assessed as release of p-nitrophenol by spectrometric analysis.
Turning to `CCCCCC[C@@H](O)[C@H]1N[C@H](CO)[C@@H](O)[C@@H]1O`, the pIC50 is 4.14.

Turning to `CCCCCCC[C@@H](O)[C@H]1N[C@H](CO)[C@@H](O)[C@@H]1O`, the pIC50 was 4.85.

Biological target in the next experiment: not listed separately
Kind of experiment: Inhibition of rice alpha-glucosidase using p-nitrophenyl glycoside as substrate assessed as release of p-nitrophenol by spectrometric analysis. The arrangement: species or system Oryza sativa.
As to `OCCC[C@H](O)CCCCCCCC[C@H](O)[C@@H]1N[C@@H](CO)[C@H](O)[C@H]1O`, the pIC50 is 5.14.

A further experiment concerns the target Alpha-glucosidase (Saccharomyces cerevisiae S288c, UniProt P53341+P38158+P07265). Kind of experiment: Inhibition of yeast alpha-glucosidase using p-nitrophenyl glycoside as substrate assessed as release of p-nitrophenol by spectrometric analysis. It is filed as protein assay.
As to `Cl.OCCC[C@@H](O)CCCCCCCC[C@@H](O)[C@@H]1N[C@@H](CO)[C@H](O)[C@H]1O`, the half-maximal inhibitory concentration (IC50) (in general, the midpoint of a concentration-inhibition curve) came out at 49 µM.

The next experiment has as its target T2, Tissue alpha-L-fucosidase (Bos taurus) (UniProt Q2KIM0).
T2 sequence (whole entry): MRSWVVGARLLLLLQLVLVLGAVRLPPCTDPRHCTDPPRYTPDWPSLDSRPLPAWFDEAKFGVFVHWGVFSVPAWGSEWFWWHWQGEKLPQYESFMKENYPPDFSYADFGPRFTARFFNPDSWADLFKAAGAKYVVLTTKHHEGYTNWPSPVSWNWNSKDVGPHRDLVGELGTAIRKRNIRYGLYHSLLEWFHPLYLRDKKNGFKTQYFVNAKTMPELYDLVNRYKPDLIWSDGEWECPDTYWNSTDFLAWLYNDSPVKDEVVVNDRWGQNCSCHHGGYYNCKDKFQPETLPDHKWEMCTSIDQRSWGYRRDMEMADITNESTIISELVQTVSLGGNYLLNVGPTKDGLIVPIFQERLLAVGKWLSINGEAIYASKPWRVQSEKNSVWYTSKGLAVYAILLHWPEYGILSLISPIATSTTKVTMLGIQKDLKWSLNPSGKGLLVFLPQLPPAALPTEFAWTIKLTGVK
In words: Inhibition of bovine kidney alpha-L-fucosidase using p-nitrophenyl glycoside as substrate assessed as release of p-nitrophenol at 1000 uM by spectrometric analysis relative to control.
As for `OCCC[C@H](O)CCCCCCCC[C@@H](O)[C@@H]1N[C@@H](CO)[C@H](O)[C@H]1O`, the inhibition (usually the change of the read-out against control, counted positive when it falls) is 1.1%.

`OCCC[C@@H](O)CCCCCCCCC[C@H]1N[C@H](CO)[C@@H](O)[C@@H]1O`: the inhibition was found to be 0%.

Regarding `OCCC[C@@H](O)CCCCCCCC[C@H](O)C1N[C@H](CO)[C@@H](O)[C@@H]1O` (single isomer, unassigned), the inhibition amounted to 0.43%.

As for `Cl.OCCC[C@@H](O)CCCCCCCC[C@@H](O)[C@@H]1N[C@@H](CO)[C@H](O)[C@H]1O`, the inhibition turned out to be 8.6%.

For the compound `OCCC[C@H](O)CCCCCCCC[C@H](O)[C@@H]1N[C@@H](CO)[C@H](O)[C@H]1O`, the inhibition amounted to 5.9%.

Biological target in the next experiment: not listed separately
In words: Inhibition of almond beta-glucosidase using p-nitrophenyl glycoside as substrate assessed as release of p-nitrophenol by spectrometric analysis. The arrangement: species or system Prunus dulcis.
As to `CCCCCC[C@@H](O)[C@H]1N[C@H](CO)[C@@H](O)[C@@H]1O`, the pIC50 is 6.70.

In the case of `CCCCCC[C@H](O)[C@H]1N[C@H](CO)[C@@H](O)[C@@H]1O`, the pIC50 was 6.19.

Regarding `OCCC[C@@H](O)CCCCCCCC[C@H](O)C1N[C@H](CO)[C@@H](O)[C@@H]1O` (single isomer, unassigned), the negative logarithm of the IC50 (pIC50) was 5.74.

Take `CCCCCCC[C@@H](O)[C@H]1N[C@H](CO)[C@@H](O)[C@@H]1O`: the pIC50 was 6.92.

System in the next experiment: not listed separately
In words: Inhibition of Escherichia coli beta-glucuronidase using p-nitrophenyl glycoside as substrate assessed as release of p-nitrophenol by spectrometric analysis.
Consider `OCCC[C@H](O)CCCCCCCC[C@@H](O)[C@@H]1N[C@@H](CO)[C@H](O)[C@H]1O`, for which the pIC50 is 4.46.

Turning to `OCCC[C@@H](O)CCCCCCCCC[C@H]1N[C@H](CO)[C@@H](O)[C@@H]1O`, the pIC50 is 4.07.

Regarding `OCCC[C@@H](O)CCCCCCCC[C@H](O)C1N[C@H](CO)[C@@H](O)[C@@H]1O` (single isomer, unassigned), the pIC50 was 5.60.

As to `Cl.OCCC[C@@H](O)CCCCCCCC[C@@H](O)[C@@H]1N[C@@H](CO)[C@H](O)[C@H]1O`, the pIC50 is 4.34.

On to `OCCC[C@H](O)CCCCCCCC[C@H](O)[C@@H]1N[C@@H](CO)[C@H](O)[C@H]1O`, for which the pIC50 is 4.54.

A further experiment addresses Alpha-galactosidase (Coffea arabica) (UniProt Q42656). In words: Inhibition of coffee bean alpha-galactosidase using p-nitrophenyl glycoside as substrate assessed as release of p-nitrophenol at 1000 uM by spectrometric analysis relative to control.
As for `CCCCCC[C@@H](O)[C@H]1N[C@H](CO)[C@@H](O)[C@@H]1O`, the inhibition stood at 0%.

Regarding `OCCC[C@H](O)CCCCCCCC[C@@H](O)[C@@H]1N[C@@H](CO)[C@H](O)[C@H]1O`, the inhibition is 4.11%.

Take `OCCC[C@@H](O)CCCCCCCCC[C@H]1N[C@H](CO)[C@@H](O)[C@@H]1O`: the inhibition was 0%.

Take `CCCCCC[C@H](O)[C@H]1N[C@H](CO)[C@@H](O)[C@@H]1O`: the inhibition turned out to be 0%.

`OCCC[C@@H](O)CCCCCCCC[C@H](O)C1N[C@H](CO)[C@@H](O)[C@@H]1O` (single isomer, unassigned): the inhibition is 4.6%.

As for `Cl.OCCC[C@@H](O)CCCCCCCC[C@@H](O)[C@@H]1N[C@@H](CO)[C@H](O)[C@H]1O`, the inhibition amounted to 4.1%.

For `CCCCCCC[C@@H](O)[C@@H]1N[C@@H](CO)[C@H](O)[C@H]1O`, the inhibition worked out at 0%.

Turning to `OCCC[C@H](O)CCCCCCCC[C@H](O)[C@@H]1N[C@@H](CO)[C@H](O)[C@H]1O`, the inhibition was determined as 4.9%.

As for `CCCCCCC[C@@H](O)[C@H]1N[C@H](CO)[C@@H](O)[C@@H]1O`, the inhibition amounted to 0%.

Biological target in the next experiment: not listed separately
Kind of experiment: Inhibition of snail beta-mannosidase using p-nitrophenyl glycoside as substrate assessed as release of p-nitrophenol by spectrometric analysis. The arrangement: species or system Helix pomatia.
In the case of `CCCCCCC[C@@H](O)[C@H]1N[C@H](CO)[C@@H](O)[C@@H]1O`, the pIC50 was 4.02.

A further experiment has as its target T3, Alpha-mannosidase (Canavalia ensiformis) (UniProt C0HJB3).
T3 sequence (whole entry): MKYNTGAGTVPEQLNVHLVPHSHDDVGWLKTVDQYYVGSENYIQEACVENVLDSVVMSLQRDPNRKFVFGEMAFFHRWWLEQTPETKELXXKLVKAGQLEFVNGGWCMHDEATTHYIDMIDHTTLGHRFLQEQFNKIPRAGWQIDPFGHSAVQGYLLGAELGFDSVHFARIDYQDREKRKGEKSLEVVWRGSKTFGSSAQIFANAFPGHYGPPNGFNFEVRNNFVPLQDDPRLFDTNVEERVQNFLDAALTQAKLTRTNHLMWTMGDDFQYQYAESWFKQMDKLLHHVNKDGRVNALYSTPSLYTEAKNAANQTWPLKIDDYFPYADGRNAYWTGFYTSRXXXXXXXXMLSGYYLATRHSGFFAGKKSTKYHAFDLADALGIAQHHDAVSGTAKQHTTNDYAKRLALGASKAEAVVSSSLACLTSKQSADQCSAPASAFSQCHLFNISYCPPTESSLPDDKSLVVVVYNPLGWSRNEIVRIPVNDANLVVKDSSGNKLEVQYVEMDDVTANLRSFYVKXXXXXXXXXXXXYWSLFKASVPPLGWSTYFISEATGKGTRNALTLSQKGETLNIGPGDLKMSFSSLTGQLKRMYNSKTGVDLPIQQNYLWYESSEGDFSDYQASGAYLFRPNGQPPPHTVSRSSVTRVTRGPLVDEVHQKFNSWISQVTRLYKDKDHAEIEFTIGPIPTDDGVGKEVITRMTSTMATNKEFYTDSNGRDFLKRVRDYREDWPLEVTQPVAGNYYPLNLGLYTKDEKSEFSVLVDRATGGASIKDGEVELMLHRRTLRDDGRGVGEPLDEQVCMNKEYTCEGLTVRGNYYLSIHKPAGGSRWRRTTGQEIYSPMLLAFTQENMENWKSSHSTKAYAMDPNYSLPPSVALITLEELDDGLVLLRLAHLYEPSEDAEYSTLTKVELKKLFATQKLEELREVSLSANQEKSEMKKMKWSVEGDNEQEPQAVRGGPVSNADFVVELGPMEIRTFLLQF
In words: Inhibition of jack bean alpha-mannosidase using p-nitrophenyl glycoside as substrate assessed as release of p-nitrophenol at 1000 uM by spectrometric analysis relative to control.
In the case of `CCCCCC[C@@H](O)[C@H]1N[C@H](CO)[C@@H](O)[C@@H]1O`, the inhibition worked out at 2.1%.

Regarding `OCCC[C@H](O)CCCCCCCC[C@@H](O)[C@@H]1N[C@@H](CO)[C@H](O)[C@H]1O`, the inhibition was 0%.

`OCCC[C@@H](O)CCCCCCCCC[C@H]1N[C@H](CO)[C@@H](O)[C@@H]1O`: the inhibition worked out at 2.5%.

For the compound `CCCCCC[C@H](O)[C@H]1N[C@H](CO)[C@@H](O)[C@@H]1O`, the inhibition turned out to be 2.1%.

Regarding `OCCC[C@@H](O)CCCCCCCC[C@H](O)C1N[C@H](CO)[C@@H](O)[C@@H]1O` (single isomer, unassigned), the inhibition came to 0%.

As for `Cl.OCCC[C@@H](O)CCCCCCCC[C@@H](O)[C@@H]1N[C@@H](CO)[C@H](O)[C@H]1O`, the inhibition was 0%.

For `CCCCCCC[C@@H](O)[C@@H]1N[C@@H](CO)[C@H](O)[C@H]1O`, the inhibition is 0%.

Turning to `OCCC[C@H](O)CCCCCCCC[C@H](O)[C@@H]1N[C@@H](CO)[C@H](O)[C@H]1O`, the inhibition stood at 0%.

As to `CCCCCCC[C@@H](O)[C@H]1N[C@H](CO)[C@@H](O)[C@@H]1O`, the inhibition is 1.7%.

Biological target in another experiment: not listed separately
Kind of experiment: Inhibition of Aspergillus niger amyloglucosidase using p-nitrophenyl glycoside as substrate assessed as release of p-nitrophenol by spectrometric analysis.
In the case of `CCCCCC[C@@H](O)[C@H]1N[C@H](CO)[C@@H](O)[C@@H]1O`, the pIC50 was 4.04.

For the compound `CCCCCCC[C@@H](O)[C@H]1N[C@H](CO)[C@@H](O)[C@@H]1O`, the pIC50 is 4.04.
